Results as given in the supplement of paper PMC8837787.

Test system: Saccharomyces cerevisiae ABC16-Green Monster
Assay: growth inhibition at single dose (up to 150 µM), below the 70% cut-off for dose-response; higher = more potent
Settings: 18 h; 30 °C; YPD
Summary of the method: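 The entry is percent growth inhibition of drug-sensitive S. cerevisiae ABC16-Green Monster cells. After overnight growth in YPD at 30 °C, cells were diluted to OD600 0.1–0.2 and exposed to each library compound at 150 µM in 200 µl per well, in biological duplicates with untreated cultures beside them, and OD600 was read at 0 h and after 18 h at 30 °C. Any compound under 70% in both replicates was not carried to dose-response.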

Structure (SMILES) | growth inhibition at single dose [%]
C=CC12CCN(CC1)C(C(O)c1ccnc3ccc(OC)cc13)C2 (stereo not drawn) | < 70
O=C(c1cnc2cc3c(cc2c1)OCCO3)c1cc(F)ccc1O | < 70
CN1CCCC1CCO[C@](C)(c1ccccc1)c1ccc(Cl)cc1 (stereo partly drawn) | < 70
Cn1ncc(C#N)c1NC(=O)c1cccc(Oc2ccccc2)c1 | < 70
O=C(Nc1ccc([N+](=O)[O-])cc1)Nc1cccnc1Cl | < 70
CN(C)c1ccc(CNc2ncnc3ccccc23)cc1 | < 70
CCOC(=O)C1(Cc2ccccc2)CCN(Cc2cccc(OC)c2O)CC1 | < 70
CC(C(=O)N1CCCC1)N1CCN(S(=O)(=O)c2ccc(C(C)(C)C)cc2)CC1 (stereo not drawn) | < 70
CCOC(=O)c1cnc2c(C)cc(C)cc2c1Nc1ccc(OC)c(OC)c1 | < 70
CN1CCCN(C(c2ccccc2)c2ccc(Cl)cc2)CC1 (stereo not drawn) | < 70
CC(C)(C)c1cc(C(=O)Nc2cccnc2)cc(C(=O)Nc2cccnc2)c1 | < 70
COc1ccccc1CNC(=O)C1c2ccccc2C(=O)N(CC(C)C)C1c1cccs1 (stereo not drawn) | < 70
O=C(Nc1nccs1)c1ccc(N2CCCCCC2)nc1 | < 70
CCNC(=O)c1nn(CC2CC2)c2c1CN(C(=O)c1cc(-c3ccccc3F)n[nH]1)CC2 | < 70
CC(C)(C)c1ccc(N[C@@H]2CCCC[C@H]2NC(=O)c2ccco2)cc1 | < 70
CCOc1ccc(Nc2ccnc3cc(Cl)ccc23)cc1 | < 70
COc1ccc(N(CCc2cccc(C)n2)C(C)=O)cc1 | < 70
Cc1cc(C(=O)COC(=O)c2ccccc2O)c(C)n1CC1CCCO1 (stereo not drawn) | < 70
Cc1ccc(S(=O)(=O)/N=C2\C=C3N(CCO)CCOC3(O)c3ccccc32)c(C)c1 (stereo not drawn) | < 70
COc1ccc(-c2cc(NC(=O)c3ccc(F)cc3Cl)ccc2OC)cc1 | < 70
CCN(CC)c1ccc(NC(=O)c2cccs2)cc1 | < 70
CCc1c(C)nc(-n2nc(C)cc2NC(=O)c2ccccc2SC)[nH]c1=O | < 70
COc1nc(Nc2ccc(C(C)C)cc2)nc(OC)n1 | < 70
Cc1nn(Cc2ccccc2)c(Cl)c1/C=C/C(=O)OC(C)C(=O)N1CCCC1 (stereo not drawn) | < 70

Structure (SMILES) | growth inhibition at single dose [%]
CC1S/C(=C\c2nc3ccccc3s2)NC1=O (stereo not drawn) | < 70
O=C(Nc1nc(-c2ccccn2)cs1)c1ccc(-n2cncn2)cc1 | < 70
CN(C)CCNc1nc(-c2ccco2)c2c(c1C#N)CCCC2 | < 70
Cc1ccc(-c2cc(C(=O)Nc3ccc(S(=O)(=O)N4CCCCC4)cc3)[nH]n2)c(O)c1 | < 70
CC(=O)Nc1cccc(Oc2ccc(C(=O)Nc3ccc4ccccc4c3)cc2[N+](=O)[O-])c1 | < 70
CN1CCN(c2c3c(c(C#N)c4nc5ccccc5n24)CCC3)CC1 | < 70
COc1ccccc1-c1noc(-c2cc3c(s2)CCCCC3)n1 | < 70
COCCNC(=O)C1CCN(C(C(=O)c2c[nH]c3ccccc23)c2ccccc2)CC1 (stereo not drawn) | < 70
C=C(C)COc1ccc(-c2n[nH]c(C)c2-c2ccc(OC)c(OC)c2)c(O)c1 | < 70
Cc1cc(NC(=O)C(C)(C)C)sc1C(=O)Nc1ccccc1O | < 70
CCCN(CCC)CCCNC(=O)c1cc2c(-c3ccc(OC)c(OC)c3)nn(C)c2s1 | < 70
Cc1c(C)n(Cc2ccc(F)cc2)c2ccc(C(=O)NCc3ccco3)cc12 | < 70
COc1ccc(Br)cc1C1Nc2ccc3ccccc3c2C2=C1C(=O)CC(c1ccccc1)C2 (stereo not drawn) | < 70
N=c1n(CCN2CCCCC2)c2ccccc2n1CC(O)c1cccc(Br)c1 (stereo not drawn) | < 70
Cc1ccc(NC(=O)c2nc[nH]c2C(=O)Nc2nc3ccccc3[nH]2)c(C)c1 | < 70
CCn1cnc2c(Nc3cc(F)cc(F)c3)nc(C#N)nc21 | < 70
Cc1sc2ncnc(Sc3nc4ccccc4[nH]3)c2c1C | < 70
O=C(Nc1ccc(Cl)cc1C(=O)Nc1ccncc1)c1ccc(Cl)cc1Cl | < 70
CCN(CC)CCn1c(NC(=O)c2cnc3c(cnn3C(C)C)c2)nc2ccccc21 | < 70
Cc1cc(C)cc(COc2ccc3c(C)c(CCC(=O)O)c(=O)oc3c2C)c1 | < 70
CCN(CC)CCCCCCNc1cc(OC)cc2c(C)ccnc12 | < 70
CCOC(=O)C1=C(c2ccccc2)N=c2sc(=Cc3cc(C)n(-c4ccc(F)cc4)c3C)c(=O)n2C1c1cccc(OC)c1OC (stereo not drawn) | < 70
CCOc1ccc2cc(-c3nn(C(C)(C)C)c(N)c3C(N)=O)cnc2c1 | < 70
Cc1cnc(N2CCN[C@@H](Cc3ccccc3)C2)nc1Oc1ccc(-n2ccnc2)cc1 | < 70

Structure (SMILES) | growth inhibition at single dose [%]
CNC(=O)c1nn(C)c2c1C(C)(C)Cc1cnc(Nc3ccc(N4CCN(C)CC4)cc3)nc1-2 | < 70
Cc1nn(Cc2ccccc2)c2sc(C(=O)Nc3nc4ccccc4[nH]3)cc12 | < 70
Cc1nc(Sc2ncnc3sc4c(c23)CCC4)sc1CC(N)=O | < 70
COc1ccc(CN2CCCC(C(=O)c3ccc(C(F)(F)F)cc3)C2)c(O)c1 (stereo not drawn) | < 70
O=C(NCc1nnc2n1CCCCC2)c1ccc(-c2ccc(F)cc2)o1 | < 70
O=C1C2=C(Nc3ccccc3SC2c2ccccc2)c2ccccc21 (stereo not drawn) | < 70
O=C(c1[nH]nc2c1CCCC2)N1CCN(Cc2ccc3c(c2)OCO3)CC1 | < 70
COc1ccc(C2C(C(=O)Nc3cccc(OC)c3)c3ccccc3C(=O)N2C2CCCCC2)cc1 (stereo not drawn) | < 70
CC(C)c1ccc2cc(C(=O)Nc3ccc4c(c3)NC(=O)CO4)[nH]c2c1 | < 70
CCOC(=O)CSCc1noc(COc2ccc(Cl)cc2Cl)n1 | < 70
Cc1cc(N2CCN(C)CC2)n2ncc(-c3ccccc3Cl)c2n1 | < 70
CCn1nc(C(=O)NCc2ccc(OC)cc2)c2c1CCN(C(=O)C1Cc3ccccc3O1)C2 (stereo not drawn) | < 70
Oc1c(C(Nc2ccccn2)c2cccc(Oc3ccccc3)c2)ccc2cccnc12 (stereo not drawn) | < 70
O=C(Nc1cccc(Cl)c1)c1cnc(N2CCN(c3ccncc3)CC2)c(Cl)c1 | < 70
CO/C=C(/C(=O)OC)c1ccccc1Oc1cc(Oc2ccccc2C#N)ncn1 | < 70
Cc1cc(C2=NNC(=NC3CC3)SC2)c(C)n1-c1ccccn1 | < 70
CCOc1ccccc1CNC(=O)C1c2ccccc2C(=O)N(CC(C)C)C1c1cccs1 (stereo not drawn) | < 70
CCCCc1c(C)nc2c(OC)cccc2c1O | < 70
CCOc1cccc(C(=O)Nc2ccc(-c3nc4ccccc4[nH]3)cc2)c1 | < 70
CCc1cccc2c(C(=O)COC(=O)C34CC5CC(CC(O)(C5)C3)C4)c[nH]c12 | < 70
CN(CC(=O)Nc1ccc(Cl)c(C(F)(F)F)c1)Cc1ccc(O)c2ncccc12 | < 70
Cc1cc(C)n(-c2ccc(NC(=O)C3CCN(Cc4cnc(C)s4)CC3)cc2)n1 | < 70
COc1cc(OC)c(N(C)C(=O)c2cc3c(s2)-c2ccccc2S(=O)(=O)C3)cc1Cl | < 70
O=C(NCCc1c[nH]c2ccccc12)c1cc2ccccc2oc1=O | < 70

Structure (SMILES) | growth inhibition at single dose [%]
CCOc1ccc(-c2nonc2NC(=O)c2cccc(C)c2)cc1OCC | < 70
c1ccc(Oc2ccc(-c3cc(N4CCNCC4)[nH]n3)cc2)cc1 | < 70
COc1ccc(N(Cc2nc(-c3cccs3)oc2C)S(=O)(=O)c2cccs2)cc1 | < 70
Oc1ccccc1CN1CCN(C(c2ccccc2)c2ccccc2)CC1 | < 70
O=C(Nc1ccc(N2CCCCCC2)cc1)c1ccc[nH]1 | < 70
COc1cccc(-c2nc3c(N4CCCC4)cccc3n2CC2CCCN2)n1 (stereo not drawn) | < 70
c1ccc2c(NCc3ccc(N4CCCC4)nc3)ncnc2c1 | < 70
C/N=c1\scc(-c2ccco2)n1/N=C/c1sccc1C | < 70
CC(=O)NCc1ccc(C(=O)Nc2ccccc2O)cc1 | < 70
O=c1c2ccccc2cnn1-c1nc2ccccc2s1 | < 70
Cc1[nH]c2ccccc2c1/C=N/n1c(-c2ccc(Cl)cc2Cl)cs/c1=N\CC1CCCO1 (stereo not drawn) | < 70
O=C(Nc1cccc([N+](=O)[O-])c1)c1[nH]nc2ccccc12 | < 70
Nc1nc(Nc2cc(Cl)cc(Cl)c2)c2[nH]cnc2n1 | < 70
CCOC(=O)c1cnc2ccc(Cl)cc2c1NCCCN(C)C | < 70
O=C(Nc1ncccc1O)c1ccc(-n2ccnc2)cc1 | < 70
Clc1cc2c(c3ncccc13)OCN(Cc1ccco1)C2 | < 70
O=c1cc(-c2ccccc2)[nH]c2ccccc12 | < 70
CCN(CC)C(=O)N1CCN(C)CC1 [Diethylcarbamazine] | < 70
CCCOc1ccc(/C=N/NC(=S)Nc2ccccc2[N+](=O)[O-])c(O)c1 | < 70
COc1ccc(-c2cc3c(SCC(=O)Nc4cc(C(F)(F)F)ccc4Cl)nccn3n2)cc1 | < 70
CCOc1cc(Br)c(C(C)NC(=O)c2cccc(OC)c2)cc1OCC (stereo not drawn) | < 70
